Laboratory results from patent publication US20220089575A1, “FARNESOID X RECEPTOR AGONISTS AND USES THEREOF” (Metacrine, Inc., priority 2017, published 2022).

These molecules were tested against T1, hFXR (Homo sapiens, UniProt Q96RI1) (assay: In Vitro FXR Assay (TK): TK-ECRE-luc reporter in transfected CV-1 cells). Settings: 18 hrs, luminescence, maximum efficacy of <25% of the Fexarmine control classified as '+'.
T1 construct: expressed in transfected cells; host or cells: CV-1 cells
T1 sequence (Q96RI1 1-486): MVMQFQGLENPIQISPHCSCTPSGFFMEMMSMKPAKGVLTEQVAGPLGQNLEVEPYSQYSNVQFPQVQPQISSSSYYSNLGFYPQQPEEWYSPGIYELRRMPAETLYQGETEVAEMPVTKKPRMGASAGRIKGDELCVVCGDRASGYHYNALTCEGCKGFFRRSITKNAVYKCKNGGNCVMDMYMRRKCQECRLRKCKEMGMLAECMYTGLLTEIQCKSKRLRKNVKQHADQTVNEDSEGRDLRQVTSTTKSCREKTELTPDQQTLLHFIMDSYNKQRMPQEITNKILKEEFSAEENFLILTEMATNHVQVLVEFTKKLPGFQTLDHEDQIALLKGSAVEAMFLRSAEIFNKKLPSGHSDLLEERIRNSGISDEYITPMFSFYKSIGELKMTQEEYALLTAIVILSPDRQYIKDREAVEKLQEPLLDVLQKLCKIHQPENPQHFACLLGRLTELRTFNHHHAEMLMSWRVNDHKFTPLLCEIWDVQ
T1 sequence (P19793 1-462 partner): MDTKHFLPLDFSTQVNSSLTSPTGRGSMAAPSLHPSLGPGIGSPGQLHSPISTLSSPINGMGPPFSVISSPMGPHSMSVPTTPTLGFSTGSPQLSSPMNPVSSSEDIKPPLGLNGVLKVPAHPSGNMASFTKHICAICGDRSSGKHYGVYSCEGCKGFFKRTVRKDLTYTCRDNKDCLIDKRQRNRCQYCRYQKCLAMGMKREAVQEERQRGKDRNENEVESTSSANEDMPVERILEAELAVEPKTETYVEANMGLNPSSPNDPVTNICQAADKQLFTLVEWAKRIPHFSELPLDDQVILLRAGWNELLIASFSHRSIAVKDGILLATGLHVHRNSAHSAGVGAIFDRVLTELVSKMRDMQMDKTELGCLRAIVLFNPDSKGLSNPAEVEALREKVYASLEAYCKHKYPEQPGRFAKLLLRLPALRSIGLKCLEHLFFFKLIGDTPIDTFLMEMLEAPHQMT
Format: cell-based
Method in brief: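 CV-1 cells transiently co-transfected with hFXR, hRXR, TK-ECRE-luc and pCMX-YFP plasmids in charcoal-stripped serum medium. Serially diluted compounds added, cells incubated 18 h at 37° C, then lysed and luminescence read.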

EC50	SMILES
≤ 250 nM	COc1ccc([C@H]2CC[C@H](CN(c3cccc(-c4cnn(C5CC5)c4)c3)C(=O)[C@H]3CC[C@H](NC(C)=O)CC3)CC2)cc1C [Compound 26.01, trans-4-Acetamido-N-(3-(1-cyclopropyl-1H-pyrazol-4-yl)phenyl)-N-((trans-4-(4-methoxy-3-methylphenyl)cyclohexyl)methyl)cyclohexanecarboxamide]
≤ 250 nM	COc1ccc([C@H]2CC[C@H](CN(c3cccc(-c4cnc(C5CC5)s4)c3)C(=O)[C@H]3CC[C@H](NC(=O)CS(C)(=O)=O)CC3)CC2)cc1C [Compound 31.12, trans-N-(3-(2-Cyclopropylthiazol-5-yl)phenyl)-N-((trans-4-(4-methoxy-3-methylphenyl)cyclohexyl)methyl)-4-(2-(methylsulfonyl)acetamido) cyclohexanecarboxamide]
250 to 1000 nM	COc1ncc(-c2cccc(N(C[C@H]3CC[C@H](c4ccc(OC)c(C)c4)CC3)C(=O)[C@H]3CC[C@H](C(=O)NCCN(C)C)CC3)c2)s1 [Compound 24.05, trans-N^1-(2-(Dimethylamino)ethyl)-N^4-((trans-4-(4-methoxy-3-methylphenyl)cyc1ohexyl)methyl)-N^4-(3-(2-methoxythiazol-5-yl)phenyl)cyclohexane-1,4-dicarboxamide]
≤ 250 nM	COc1ccc([C@H]2CC[C@H](CN(c3cc(-c4coc(C5CC5)n4)ccn3)C(=O)[C@H]3CC[C@H](NC(=O)C4CCC4)CC3)CC2)nc1C [Compound 30.02, trans-4-(cyclobutanecarboxamido)-trans-(4-(2-cyclopropyloxazol-4-yl)pyridine-2-yl)-N-((trans-4-(5-methoxy-6-methylpyridin-2-yl)cyclohexyl)methyl) cyclohexanecarboxamide]
≤ 250 nM	COC(=O)NC[C@H]1CC[C@H](C(=O)N(C[C@H]2CC[C@H](c3ccc(OC)c(C)c3)CC2)c2cccc(-c3cnc(OC)s3)c2)CC1 [Compound 25.07, Methyl ((trans-4-(((trans-4-(4-methoxy-3-methylphenyl)cyclohexyl)methyl)(3-(2-methoxythiazol-5-yl)phenyl)carbamoyl)cyclohexyl)methyl)carbamate]

The next lines start with the molecule.

SMILES	EC50
COc1ccc([C@H]2CC[C@H](CN(c3cc(-c4coc(C5CC5)n4)ccn3)C(=O)[C@H]3CC[C@H](OC(=O)N(C)CC(C)O)CC3)CC2)nc1C (stereo partly drawn) [Compound 6.67, trans-4-((4-(2-Cyclopropyloxazol-4-yl)pyridin-2-yl)((trans-4-(5-methoxy-6-methylpyridin-2-yl)cyclohexyl)methyl)carbamoyl)cyclohexyl(2-hydroxypropyl)(methyl)carbamate]	≤ 250 nM
COc1ccc([C@H]2CC[C@H](CN(c3cc(-c4coc(C5CC5)n4)ccn3)C(=O)[C@H]3CC[C@H](OC(=O)NC4CCN(C)CC4)CC3)CC2)nc1C [Compound 6.79, trans-4-((4-(2-Cyclopropyloxazol-4-yl)pyridine-2-yl)((trans-4-(5-methoxy-6-methylpyridin-2-yl)cyclohexyl)methyl)carbamoyl)cyclohexyl (1-methylpiperidin-4-yl)carbamate]	≤ 250 nM
CNC(=O)O[C@H]1CC[C@H](C(=O)N(C[C@H]2CC[C@H](c3ccc(N(C)C)nc3)CC2)c2cccc(-c3cnn(C4CC4)c3)c2)CC1 [Compound 5.09, trans-4-((3-(1-Cyclopropyl-1H-pyrazol-4-yl)phenyl)((trans-4-(6-(dimethylamino)pyridin-3-yl)cyclohexyl)methyl)carbamoyl)cyclohexyl methylcarbamate]	≤ 250 nM
CCC(O)C(C)NC(=O)O[C@H]1CC[C@H](C(=O)N(C[C@H]2CC[C@H](c3ccc(OC)c(C)n3)CC2)c2cc(-c3coc(C4CC4)n3)ccn2)CC1 (stereo partly drawn) [Compound 6.88, trans-4-((4-(2-Cyclopropyloxazol-4-yl)pyridin-2-yl)((trans-4-(5-methoxy-6-methylpyridin-2-yl)cyclohexyl)methyl)carbamoyl)cyclohexyl (3-hydroxypentan-2-yl)carbamate]	≤ 250 nM
COc1ccc([C@H]2CC[C@H](CN(c3cccc(-c4cnc(C5CC5)s4)c3)C(=O)[C@H]3CC[C@H](C(=O)O)CC3)CC2)nc1C [Compound 17.08, trans-4-((3-(2-Cyclopropylthiazol-5-yl)phenyl)((trans-4-(5-methoxy-6-methylpyridin-2-yl)cyclohexyl)methyl)carbamoyl) cyclohexanecarboxylic acid]	≤ 250 nM
COc1ccc([C@H]2CC[C@H](CN(c3cccc(-c4coc(C5CC5)n4)c3)C(=O)[C@H]3CC[C@H](OC(=O)NCCO)CC3)CC2)cc1C#N [Compound 6.53, trans-4-(((trans-4-(3-Cyano-4-methoxyphenyl)cyclohexyl)methyl)(3-(2-cyclopropyloxazol-4-yl)phenyl)carbamoyl)cyclohexyl (2-hydroxyethyl)carbamate]	≤ 250 nM
COc1ccc([C@H]2CC[C@H](CN(c3cccc(-c4cnn(C5CC5)c4)c3)C(=O)[C@H]3CC[C@H](C(=O)O)CC3)CC2)nc1C [Compound 17.18, trans-4-((3-(1-Cyclopropyl-1H-pyrazol-4-yl)phenyl)((trans-4-(5-methoxy-6-methylpyridin-2-yl)cyclohexyl)methyl)carbamoyl) cyclohexanecarboxylic acid]	250 to 1000 nM
COc1ccc([C@H]2CC[C@H](CN(c3cc(-c4coc(C5CC5)n4)ccn3)C(=O)[C@H]3CC[C@H](OC(=O)NCC(C)(O)C(C)C)CC3)CC2)nc1C (stereo partly drawn) [Compound 6.68, trans-4-((4-(2-Cyclopropyloxazol-4-yl)pyridin-2-yl)((trans-4-(5-methoxy-6-methylpyridin-2-yl)cyclohexyl)methyl)carbamoyl)cyclohexyl (2-hydroxy-2,3-dimethylbutyl)carbamate]	≤ 250 nM
COc1ccc([C@H]2CC[C@H](CN(c3cc(-c4cnn(C(C)C)c4)ccn3)C(=O)[C@H]3CC[C@H](OC(=O)NC4CC4)CC3)CC2)cc1C#N [Compound 6.35, trans-4-(((trans-4-(3-Cyano-4-methoxyphenyl)cyclohexyl)methyl)(4-(1-isopropyl-1H-pyrazol-4-yl)pyridin-2-yl)carbamoyl)cyclohexyl cyclopropylcarbamate]	≤ 250 nM
CNC(=O)O[C@H]1CC[C@H](C(=O)N(C[C@H]2CC[C@H](c3ccc(OC)c(C)n3)CC2)c2cccc(-c3coc(C4CC4)n3)c2)CC1 [Compound 5.32, trans-4-((3-(2-Cyclopropyloxazol-4-yl)phenyl)((trans-4-(5-methoxy-6-methylpyridin-2-yl)cyclohexyl)methyl)carbamoyl)cyclohexyl methylcarbamate]	≤ 250 nM
COc1ccc([C@H]2CC[C@H](CN(c3cc(-c4coc(C5CC5)n4)ccn3)C(=O)[C@H]3CC[C@H](OC(=O)N4CCC4)CC3)CC2)nc1C [Compound 7.75, trans-4-((4-(2-Cyclopropyloxazol-4-yl)pyridine-2-yl)((trans-4-(5-methoxy-6-methylpyridin-2-yl)cyclohexyl)methyl)carbamoyl)cyclohexyl azetidine-1-carboxylate]	≤ 250 nM
COc1ccc([C@H]2CC[C@H](CN(c3cccc(-c4cnc(C5CC5)s4)c3)C(=O)[C@H]3CC[C@H](CC(=O)O)CC3)CC2)cc1C [Compound 19, 2-(trans-4-((3-(2-Cyclopropylthiazol-5-yl)phenyl)((trans-4-(4-methoxy-3-methylphenyl)cyclohexyl)methyl)carbamoyl)cyclohexyl)acetic acid]	≤ 250 nM
CNC(=O)O[C@H]1CC[C@H](C(=O)N(C[C@H]2CC[C@H](c3ccc(OC)c(C)n3)CC2)c2cccc(-c3cnc(C(C)C)s3)c2)CC1 [Compound 5.08, trans-4-((3-(2-Isopropylthiazol-5-yl)phenyl)((trans-4-(5-methoxy-6-methylpyridin-2-yl)cyclohexyl)methyl)carbamoyl)cyclohexyl methylcarbamate]	≤ 250 nM
COc1ccc([C@H]2CC[C@H](CN(c3cccc(-c4coc(C(C)C)n4)c3)C(=O)[C@H]3CC[C@H](OC(=O)N4CC(O)C4)CC3)CC2)cc1C [Compound 7.64, trans-4-((3-(2-Isopropyloxazol-4-yl)phenyl)((trans-4-(4-methoxy-3-methylphenyl)cyclohexyl)methyl)carbamoyl)cyclohexyl 3-hydroxyazetidine-1-carboxylate]	≤ 250 nM
COc1ccc([C@H]2CC[C@H](CN(c3cc(-c4cnn(C(C)C)c4)ccn3)C(=O)[C@H]3CC[C@H](OC(=O)N4CC(CO)C4)CC3)CC2)nc1C [Compound 7.59, trans-4-((4-(1-Isopropyl-1H-pyrazol-4-yl)pyridin-2-yl)((trans-4-(5-methoxy-6-methylpyridin-2-yl)cyclohexyl)methyl)carbamoyl)cyclohexyl 3-(hydroxymethyl)azetidine-1-carboxylate]	≤ 250 nM
